Several values for one entry are separate records, joined by “and”; a condition that tells them apart may be missing. Equal entries are not always repeated. Where two headings read alike, the source gives them in different places.
Biological target: T1, hGLUT8 (Homo sapiens, UniProt Q9NY64, E7R/E8R)
T1 construct: expressed in transfected cells; host or cells: HEK293 (HEK293-FLIP, native hGLUT1 knocked down)
T1 sequence (Q9NY64 1-477 E7R/E8R): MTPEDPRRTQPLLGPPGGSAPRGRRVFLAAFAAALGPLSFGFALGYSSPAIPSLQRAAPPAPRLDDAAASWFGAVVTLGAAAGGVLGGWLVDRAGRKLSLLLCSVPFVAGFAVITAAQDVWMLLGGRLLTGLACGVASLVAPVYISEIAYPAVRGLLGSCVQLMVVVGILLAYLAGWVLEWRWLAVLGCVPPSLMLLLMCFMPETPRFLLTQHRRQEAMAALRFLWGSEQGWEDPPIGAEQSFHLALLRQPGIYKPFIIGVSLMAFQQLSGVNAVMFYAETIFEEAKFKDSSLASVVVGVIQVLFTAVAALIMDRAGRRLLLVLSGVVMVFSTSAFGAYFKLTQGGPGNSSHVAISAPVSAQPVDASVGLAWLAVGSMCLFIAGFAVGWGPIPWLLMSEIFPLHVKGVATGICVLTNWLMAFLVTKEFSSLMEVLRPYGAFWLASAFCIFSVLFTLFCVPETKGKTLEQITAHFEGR
Experiment: 2-DG uptake by HEK293 cells overexpressing hGLUT8
Assay type: cell-based
Source text: Generation of HEK293 cells overexpressing PfHT and human GLUTs 1–4 were described elsewhere. Briefly, HEK293 cells were transfected with pcDNA3.1 FLII12Pglu-7006 (Addgene), containing the fluorescence resonance energy transfer (FRET) glucose sensor (HEK293-FLIP) and PfHT, human GLUT1 (hGLUT1), hGLUT2, hGLUT3, hGLUT4, hGLUT5 or hGLUT8 using Optifect (Life Technologies) according to manufacturer’s specifications. To increase retention of GLUT8 at the plasma membrane, the dileucine sorting signal E^7E^8XXXLL was modified to R^7R^8XXXLL as described in [17]. Stable transfectants were selected for G418 and hygromycin resistance to select for FRET sensor and hexose transporter, respectively. HEK293-FLIP cells were also used to generate cells stably transfected with FLAG-tagged PfHT (FTPfHT). FLAG tag ([…]) followed by a triple glycine linker and a tobacco etch virus (TEV) protease site (ENLYFQS) followed by a triple glycine linker was added to the N-terminus of PfHT via PCR [18] using Phusion Hot Start II High-Fidelity DNA Polymerase (Fisher Scientific). Single clones were selected by comparing their abilities to transport glucose as assayed via FRET and radiolabeled hexose uptake. In all cell lines, except for HEK293 cells overexpressing hGLUT1 and hGLUT5, native hGLUT1 was knocked down using shRNA as described elsewhere. Transcript levels of the individual GLUTs expressed in each cell line are as described in [13, 15] and in S1 Fig.
Glucose uptake by P. falciparum was performed essentially as described. P. falciparum strain 3D7 was cultured in 100 mm tissue culture dishes (Techno Plastic Products) in a 2% suspension of human erythrocytes and RPMI 1640 medium until reaching > 7.5% parasitemia. Cells were pelleted via centrifugation and resuspended in RPMI 1640 medium. To determine the uptake of radiolabeled glucose into the parasite, parasites were isolated from infected erythrocytes by permeablization with saponin (0.05 w/v), followed by centrifugation, aspiration of supernatant and washing of the pellet 3X with saline solution (135 mM NaCl, 2 mM KCl, 25 mM HEPES, 0.2 mM glucose and 1 mM MgCl2; pH 7.1) to remove cellular debris. WU-1 or DMSO vehicle were added to 100 μl parasites (resuspended in saline) 5 min prior to the addition of 100 μl [^14C]2-DOG (0.2- μCi/ml final concentration). 2-DG uptake was stopped after 2 min by layering the entire reaction over 300 μl of an oil mixture (5:4 mix of dibutyl phthalate / dinonyl phthalate) in Eppendorf tubes and centrifuged at 15,850 × g for 2 mins. The ratio of the estimated intracellular concentration of radiolabel relative to the extracellular concentration were calculated as described. Uptake of radiolabeled hexose into HEK293 cells was measured in glucose-free HBSS as described previously. Briefly, cells were plated at 400,000 cells/well overnight at 37°C in 24-well plates pre-treated with PEI. After 30-min incubation at 37°C in glucose-free HBSS in the presence of vehicle or increasing concentrations of compound, 2-DG uptake was measured in glucose-free HBSS for 4 min at 37°C. Cultures were washed in ice-cold 1X PBS and lysed in 0.1% Triton X-100 in 1X PBS. Radiolabeled hexose uptake was determined by liquid scintillation counting (Ultima Gold, Thermo Fisher) and normalized to total protein per well. Uptake data are plotted as percent uptake relative to vehicle-treated cells. Kinetic analyses were performed using the indicated concentrations of substrate and WU-1, with quenching of uptake after 1 min incubation. Incubation times had been previously determined as being in the linear range of time-dependent radiolabeled hexose uptake (2 min for 2-DG uptake into freed parasites; 2 and 4 min for D-Frc and 2-DG uptake HEK cell lines, respectively). Data were fit by least squares nonlinear regression analysis using GraphPad Prism 6.0 software.

Cc1ccc(S(=O)(=O)CCNC(=O)c2c(-c3c(Cl)cccc3Cl)noc2C)cc1 [WU-1, 3-(2,6-dichlorophenyl)-5-methyl-N-[2-(4-methylbenzenesulfonyl)ethyl]-1,2-oxazole-4-carboxamide]
IC50 (GLUT8, 2-DG Uptake, average of Expt 1-3, read-out: AVE IC50): 25 µM
IC50 (GLUT8, 2-DG Uptake, single experiments Expt 1-3, read-out: IC50): 39.8 µM and 19.9 µM and 15.3 µM
IC50 (GLUT8 cell line, read-out: IC50, 2-DG uptake): 25 ± 7.5 µM
remaining activity at 0.001 µM (HEK293, 4 min, GLUT8, concentration 0.001 µM, Expt 1-3, read-out: 2-DG Uptake AVE): 100%
remaining activity at 0.3125 µM (HEK293, 4 min, GLUT8, concentration 0.3125 µM, read-out: 2-DG Uptake AVE): 104%
remaining activity at 0.625 µM (HEK293, 4 min, GLUT8, concentration 0.6250 µM, read-out: 2-DG Uptake AVE): 95.3%
remaining activity at 1.25 µM (HEK293, 4 min, GLUT8, concentration 1.250 µM, read-out: 2-DG Uptake AVE): 98.6%
remaining activity at 2.5 µM (HEK293, 4 min, GLUT8, concentration 2.500 µM, read-out: 2-DG Uptake AVE): 97.5%
remaining activity at 5 µM (HEK293, 4 min, GLUT8, concentration 5.0 µM, read-out: 2-DG Uptake AVE): 88%
remaining activity at 20 µM (HEK293, 4 min, GLUT8, concentration 20 µM, read-out: 2-DG Uptake AVE): 60.6%
remaining activity at 80 µM (HEK293, 4 min, GLUT8, concentration 80 µM, read-out: 2-DG Uptake AVE): 41.2%
remaining activity at 160 µM (HEK293, 4 min, GLUT8, concentration 160 µM, read-out: 2-DG Uptake AVE): 25.7%
remaining activity at 225 µM (HEK293, 4 min, GLUT8, concentration 225 µM, read-out: 2-DG Uptake AVE): 23.9%
Selectivity Index (PfHT over GLUT8), 2-DG (calculated from IC50s): 4.3
